Results reported in publication PMC5218480 (PLoS ONE, 2017).

Tested on: MV-4-11 cells
Assay: Gene expression microarray analysis (Affymetrix PrimeView) and GSEA
Assay type: cell-based, human
Parameters: RFU PODN (11730768_x_at) / Fold change /veh PODN (11730768_x_at) / RFU LINC00158 (11744669_a_at) / Fold change /veh LINC00158 (11744669_a_at) / RFU DUSP10 (11751237_a_at) / Fold change /veh DUSP10 (11751237_a_at) / RFU ID3 (11757404_x_at) / Fold change /veh ID3 (11757404_x_at) / RFU PLEKHG5 (11737974_s_at) / Fold change /veh PLEKHG5 (11737974_s_at) / RFU LRRC4B (11730491_at) / Fold change /veh LRRC4B (11730491_at) / RFU GIMAP4 (11747438_a_at) / Fold change /veh GIMAP4 (11747438_a_at) / RFU KRT8 (11758183_x_at) / Fold change /veh KRT8 (11758183_x_at) / RFU CNN1 (11734310_a_at) / Fold change /veh CNN1 (11734310_a_at) / RFU VPS37D (11726825_at) / Fold change /veh VPS37D (11726825_at) / RFU C10orf10 (11716522_x_at) / Fold change /veh C10orf10 (11716522_x_at) / RFU KIR2DL2 /// KIR2DL4 /// KIR2DL5A /// KIR2DL5B /// KIR2DS1 /// KIR2DS2 /// KIR2DS3 /// KIR2DS4 /// KIR3DL3 /// KIR3DL3 /// KIR3DS1 (11738374_at) / Fold change /veh KIR2DL2 /// KIR2DL4 /// KIR2DL5A /// KIR2DL5B /// KIR2DS1 /// KIR2DS2 /// KIR2DS3 /// KIR2DS4 /// KIR3DL3 /// KIR3DL3 /// KIR3DS1 (11738374_at) / RFU C1QL1 (11718748_at) / Fold change /veh C1QL1 (11718748_at) / RFU TMPRSS4 (11747572_a_at) / Fold change /veh TMPRSS4 (11747572_a_at) / RFU HAMP (11756126_x_at) / Fold change /veh HAMP (11756126_x_at) / RFU RNFT2 (11725882_a_at) / Fold change /veh RNFT2 (11725882_a_at) / RFU NR4A2 (11747474_a_at) / Fold change /veh NR4A2 (11747474_a_at) / RFU ABCC12 (11746883_a_at) / Fold change /veh ABCC12 (11746883_a_at) / RFU TMEM136 (11760407_x_at) / Fold change /veh TMEM136 (11760407_x_at) / RFU CLDN22 /// WWC2 (11732394_at) / Fold change /veh CLDN22 /// WWC2 (11732394_at) / RFU HLA-DPB1 (11760878_x_at) / Fold change /veh HLA-DPB1 (11760878_x_at) / RFU SPINT1 (11716480_a_at) / Fold change /veh SPINT1 (11716480_a_at) / RFU GAP43 (11754022_s_at) / Fold change /veh GAP43 (11754022_s_at) / RFU A4GNT (11735810_at) / Fold change /veh A4GNT (11735810_at) / RFU PRB3 (11715151_x_at) / Fold change /veh PRB3 (11715151_x_at) / RFU TUBB4B (11761932_at) / Fold change /veh TUBB4B (11761932_at) / RFU CAPN14 (11732068_a_at) / Fold change /veh CAPN14 (11732068_a_at) / RFU TMCC2 (11721928_a_at) / Fold change /veh TMCC2 (11721928_a_at) / RFU IRGQ (11745062_a_at) / Fold change /veh IRGQ (11745062_a_at) / RFU FAM174B (11720279_a_at) / Fold change /veh FAM174B (11720279_a_at) / RFU TMPRSS4 (11748680_a_at) / Fold change /veh TMPRSS4 (11748680_a_at) / RFU FAM212B (11763350_a_at) / Fold change /veh FAM212B (11763350_a_at) / RFU PLEKHG5 (11743358_a_at) / Fold change /veh PLEKHG5 (11743358_a_at) / RFU ZSCAN30 (11745921_a_at) / Fold change /veh ZSCAN30 (11745921_a_at) / RFU CMKLR1 (11741424_a_at) / Fold change /veh CMKLR1 (11741424_a_at) / RFU LOC101060620 /// MAPK8IP1 (11723275_at) / Fold change /veh LOC101060620 /// MAPK8IP1 (11723275_at) / RFU SPTSSB (11747773_x_at) / Fold change /veh SPTSSB (11747773_x_at) / RFU PRSS12 (11739890_at) / Fold change /veh PRSS12 (11739890_at) / RFU BIN1 (11741810_x_at) / Fold change /veh BIN1 (11741810_x_at) / RFU WNT11 (11732464_a_at) / Fold change /veh WNT11 (11732464_a_at) / RFU C10orf10 (11716521_a_at) / Fold change /veh C10orf10 (11716521_a_at) / RFU C5orf56 (11738089_at) / Fold change /veh C5orf56 (11738089_at) / RFU CYB561 (11721691_x_at) / Fold change /veh CYB561 (11721691_x_at) / RFU ANKRD19P (11752326_a_at) / Fold change /veh ANKRD19P (11752326_a_at) / RFU OR2T12 /// OR2T33 /// OR2T8 (11738714_s_at) / Fold change /veh OR2T12 /// OR2T33 /// OR2T8 (11738714_s_at) / RFU VCAN (11748164_a_at) / Fold change /veh VCAN (11748164_a_at) / RFU JSRP1 (11732532_at) / Fold change /veh JSRP1 (11732532_at) / RFU KRTAP10-11 (11738290_x_at) / Fold change /veh KRTAP10-11 (11738290_x_at) / RFU MYO3A (11730013_a_at) / Fold change /veh MYO3A (11730013_a_at) / RFU EBF3 (11725865_a_at) / Fold change /veh EBF3 (11725865_a_at) / RFU CAMK2N1 (11719241_x_at) / Fold change /veh CAMK2N1 (11719241_x_at) / RFU C5orf56 (11738088_a_at) / Fold change /veh C5orf56 (11738088_a_at) / RFU OLFML3 (11715873_a_at) / Fold change /veh OLFML3 (11715873_a_at) / RFU LOC100653217 /// NTM (11731650_a_at) / Fold change /veh LOC100653217 /// NTM (11731650_a_at) / RFU MAPK11 (11762145_a_at) / Fold change /veh MAPK11 (11762145_a_at) / RFU FIZ1 (11724087_x_at) / Fold change /veh FIZ1 (11724087_x_at) / RFU OASL (11726364_x_at) / Fold change /veh OASL (11726364_x_at) / RFU SOX15 (11748057_x_at) / Fold change /veh SOX15 (11748057_x_at) / RFU CD79A (11719716_a_at) / Fold change /veh CD79A (11719716_a_at) / RFU HIST1H1D (11736915_at) / Fold change /veh HIST1H1D (11736915_at) / RFU CASKIN2 (11723855_a_at) / Fold change /veh CASKIN2 (11723855_a_at) / RFU LOC730098 (11760151_x_at) / Fold change /veh LOC730098 (11760151_x_at) / RFU OR4N2 (11742367_at) / Fold change /veh OR4N2 (11742367_at) / RFU PRRT2 (11749266_a_at) / Fold change /veh PRRT2 (11749266_a_at) / RFU SNX32 (11753110_a_at) / Fold change /veh SNX32 (11753110_a_at) / RFU CDHR5 (11726645_a_at) / Fold change /veh CDHR5 (11726645_a_at) / RFU RCAN1 (11760418_a_at) / Fold change /veh RCAN1 (11760418_a_at) / RFU FAM167A (11723789_a_at) / Fold change /veh FAM167A (11723789_a_at) / RFU FAM26E (11764081_at) / Fold change /veh FAM26E (11764081_at) / RFU ISYNA1 (11749810_s_at) / Fold change /veh ISYNA1 (11749810_s_at) / RFU ACY1 (11761880_at) / Fold change /veh ACY1 (11761880_at) / RFU 11764098_at / Fold change /veh 11764098_at / RFU SAMD14 (11745864_x_at) / Fold change /veh SAMD14 (11745864_x_at) / RFU NPB (11741838_a_at) / Fold change /veh NPB (11741838_a_at) / RFU TMPRSS6 (11731388_a_at) / Fold change /veh TMPRSS6 (11731388_a_at) / RFU KRTAP10-2 (11738614_at) / Fold change /veh KRTAP10-2 (11738614_at) / RFU ARHGAP8 /// PRR5-ARHGAP8 (11727945_x_at) / Fold change /veh ARHGAP8 /// PRR5-ARHGAP8 (11727945_x_at) / RFU KRTAP5-7 /// NADSYN1 (11734609_at) / Fold change /veh KRTAP5-7 /// NADSYN1 (11734609_at) / RFU RASL12 (11751679_a_at) / Fold change /veh RASL12 (11751679_a_at) / RFU CDKN2B (11736163_a_at) / Fold change /veh CDKN2B (11736163_a_at) / RFU PRF1 (11729649_at) / Fold change /veh PRF1 (11729649_at) / RFU, ZNF638 /// ZNF638-IT1 / Fold change vs veh, ZNF638 /// ZNF638-IT1 / RFU, PANK3 / Fold change vs veh, PANK3 / RFU, SH3YL1 / Fold change vs veh, SH3YL1 / RFU, ZEB2 / Fold change vs veh, ZEB2 / RFU, NRIP1 / Fold change vs veh, NRIP1 / RFU, PTTG1IP / Fold change vs veh, PTTG1IP / RFU, CAPN2 / Fold change vs veh, CAPN2 / RFU, MED14 / Fold change vs veh, MED14 / RFU, SNORA58 / Fold change vs veh, SNORA58 / RFU, C1orf63 / Fold change vs veh, C1orf63 / RFU, LRRFIP1 / Fold change vs veh, LRRFIP1 / RFU, NDUFAF7 / Fold change vs veh, NDUFAF7 / RFU, SLC12A2 / Fold change vs veh, SLC12A2 / RFU, IBTK / Fold change vs veh, IBTK / RFU, ESF1 / Fold change vs veh, ESF1 / Fold change vs veh, TMEM50B / RFU, TAOK1 / Fold change vs veh, TAOK1 / RFU, ACBD3 / Fold change vs veh, ACBD3 / RFU, TMA16 / Fold change vs veh, TMA16 / RFU, RWDD3 / Fold change vs veh, RWDD3 / RFU, BCAT1 / Fold change vs veh, BCAT1 / RFU, EDEM3 / Fold change vs veh, EDEM3 / RFU, TMEM33 / Fold change vs veh, TMEM33 / RFU, WDR75 / Fold change vs veh, WDR75 / RFU, AHCTF1 / Fold change vs veh, AHCTF1 / RFU, TFRC / Fold change vs veh, TFRC / RFU, ZDHHC17 / Fold change vs veh, ZDHHC17 / RFU, NOM1 / Fold change vs veh, NOM1 / RFU, ARL8B / Fold change vs veh, ARL8B / RFU, ZBTB11 / Fold change vs veh, ZBTB11 / RFU, TAMM41 / Fold change vs veh, TAMM41 / RFU, KIAA1704 /// LOC100996395 / Fold change vs veh, KIAA1704 /// LOC100996395 / RFU, ING1 / Fold change vs veh, ING1 / RFU, TRMT61B / Fold change vs veh, TRMT61B / RFU, FUBP3 / Fold change vs veh, FUBP3 / RFU, TP53 / Fold change vs veh, TP53 / RFU, TNKS2 / Fold change vs veh, TNKS2 / RFU, ZFP14 / Fold change vs veh, ZFP14 / RFU, ACTR2 / Fold change vs veh, ACTR2 / RFU, PPP3R1 / Fold change vs veh, PPP3R1 / RFU, PIK3R1 / Fold change vs veh, PIK3R1 / RFU, HNRNPA1 / Fold change vs veh, HNRNPA1 / RFU, RNF170 / Fold change vs veh, RNF170 / RFU, ZNF28 / Fold change vs veh, ZNF28 / RFU, RNGTT / Fold change vs veh, RNGTT / RFU, OGT / Fold change vs veh, OGT / RFU, BRD1 / Fold change vs veh, BRD1 / RFU, MARS / Fold change vs veh, MARS / RFU, ZNF655 / Fold change vs veh, ZNF655 / RFU, FAHD1 / Fold change vs veh, FAHD1 / RFU, BDP1 / Fold change vs veh, BDP1 / RFU, LRRCC1 / Fold change vs veh, LRRCC1 / RFU, ARID1A / Fold change vs veh, ARID1A / RFU, ZNF146 / Fold change vs veh, ZNF146 / RFU, ZNF330 / Fold change vs veh, ZNF330 / RFU, GPN3 / Fold change vs veh, GPN3 / RFU, C9orf123 / Fold change vs veh, C9orf123 / RFU, N4BP2L2 / Fold change vs veh, N4BP2L2 / RFU, ARFIP1 / Fold change vs veh, ARFIP1 / RFU, FAM179B / Fold change vs veh, FAM179B / RFU, BCL10 / Fold change vs veh, BCL10 / RFU, UHRF1BP1L / Fold change vs veh, UHRF1BP1L / RFU, BET1 / Fold change vs veh, BET1 / RFU, CNOT2 / Fold change vs veh, CNOT2 / RFU, ZNF268 / Fold change vs veh, ZNF268 / Fold change vs veh, ZNF507 / RFU, DGCR2 / Fold change vs veh, DGCR2 / RFU, WDSUB1 / Fold change vs veh, WDSUB1 / Fold change vs veh, HSP90B1 /// MIR3652 / RFU, ADSS / Fold change vs veh, ADSS / RFU, GK / Fold change vs veh, GK / RFU, ZNF148 / Fold change vs veh, ZNF148 / RFU, TAF9 / Fold change vs veh, TAF9 / RFU, SLC1A5 / Fold change vs veh, SLC1A5 / RFU, SLMO2 / Fold change vs veh, SLMO2 / RFU, ABCC4 / Fold change vs veh, ABCC4 / RFU, LOC101060439 /// RAP1B / Fold change vs veh, LOC101060439 /// RAP1B / RFU, RFX7 / Fold change vs veh, RFX7 / RFU, GTPBP10 / Fold change vs veh, GTPBP10 / RFU, CNEP1R1 / Fold change vs veh, CNEP1R1 / RFU, BIVM-ERCC5 /// ERCC5 / Fold change vs veh, BIVM-ERCC5 /// ERCC5 / RFU, ILF3 / Fold change vs veh, ILF3 / RFU 11762660_at / Fold change /veh 11762660_at / RFU VCAN (11757783_s_at) / Fold change /veh VCAN (11757783_s_at) / RFU DDX43 (11728927_at) / Fold change /veh DDX43 (11728927_at) / RFU KRT8 (11758188_x_at) / Fold change /veh KRT8 (11758188_x_at) / RFU NKD1 (11759106_at) / Fold change /veh NKD1 (11759106_at) / RFU SRD5A1 (11742802_a_at) / Fold change /veh SRD5A1 (11742802_a_at) / RFU TPSAB1 /// TPSB2 (11721975_s_at) / Fold change /veh TPSAB1 /// TPSB2 (11721975_s_at) / RFU GSTM3 (11746129_a_at) / Fold change /veh GSTM3 (11746129_a_at) / RFU IL23R (11737362_x_at) / Fold change /veh IL23R (11737362_x_at) / RFU TMEM51 (11727254_a_at) / Fold change /veh TMEM51 (11727254_a_at) / RFU PIWIL2 (11732686_x_at) / Fold change /veh PIWIL2 (11732686_x_at) / RFU ORM1 (11744905_x_at) / Fold change /veh ORM1 (11744905_x_at) / RFU CCDC152 (11743942_at) / Fold change /veh CCDC152 (11743942_at) / RFU ECM1 (11717891_a_at) / Fold change /veh ECM1 (11717891_a_at) / RFU IL23R (11748794_a_at) / Fold change /veh IL23R (11748794_a_at) / RFU TNFAIP8L3 (11732012_x_at) / Fold change /veh TNFAIP8L3 (11732012_x_at) / RFU MBOAT4 (11741988_at) / Fold change /veh MBOAT4 (11741988_at) / RFU 11764193_at / Fold change /veh 11764193_at / RFU TMEM53 (11763286_at) / Fold change /veh TMEM53 (11763286_at) / RFU MAGEB2 (11727129_at) / Fold change /veh MAGEB2 (11727129_at) / RFU TMEM200A (11744735_a_at) / Fold change /veh TMEM200A (11744735_a_at) / RFU CCDC152 (11751479_a_at) / Fold change /veh CCDC152 (11751479_a_at) / RFU FAM211A (11726209_a_at) / Fold change /veh FAM211A (11726209_a_at) / RFU RGS16 (11746705_a_at) / Fold change /veh RGS16 (11746705_a_at) / RFU VCAN (11755009_s_at) / Fold change /veh VCAN (11755009_s_at) / RFU RHOB (11743442_s_at) / Fold change /veh RHOB (11743442_s_at) / RFU RGS16 (11720943_a_at) / Fold change /veh RGS16 (11720943_a_at) / RFU RGS16 (11720944_at) / Fold change /veh RGS16 (11720944_at) / RFU, VPS4B / Fold change vs veh, VPS4B / RFU, CREB1 / Fold change vs veh, CREB1 / RFU, DNAJC13 / Fold change vs veh, DNAJC13 / RFU, GNAQ / Fold change vs veh, GNAQ / RFU, CDK5R1 / Fold change vs veh, CDK5R1 / RFU, ZRANB3 / Fold change vs veh, ZRANB3 / RFU, CUL4A / Fold change vs veh, CUL4A / RFU, CCNY / Fold change vs veh, CCNY / RFU, UFL1 / Fold change vs veh, UFL1 / RFU, COG3 / Fold change vs veh, COG3 / RFU, DIAPH2 / Fold change vs veh, DIAPH2 / RFU, SKA2 / Fold change vs veh, SKA2 / RFU, AFF3 / Fold change vs veh, AFF3 / RFU, LMF1 / Fold change vs veh, LMF1 / RFU, IPO11 / Fold change vs veh, IPO11 / RFU, DFFB / Fold change vs veh, DFFB / RFU, FOXP1 / Fold change vs veh, FOXP1 / RFU, CARD8 / Fold change vs veh, CARD8 / RFU, STRN3 / Fold change vs veh, STRN3 / RFU, ADK / Fold change vs veh, ADK / RFU, RASSF2 / Fold change vs veh, RASSF2 / RFU, WIPF1 / Fold change vs veh, WIPF1 / RFU, LARP1B / Fold change vs veh, LARP1B / RFU, RASA1 / Fold change vs veh, RASA1 / RFU, RB1 / Fold change vs veh, RB1 / RFU, PPFIA1 / Fold change vs veh, PPFIA1 / RFU, MAT2A / Fold change vs veh, MAT2A / RFU, CCT5 / Fold change vs veh, CCT5 / RFU, WDR92 / Fold change vs veh, WDR92 / RFU, CUX1 / Fold change vs veh, CUX1 / RFU, TTC7A / Fold change vs veh, TTC7A / RFU, TMEM135 / Fold change vs veh, TMEM135 / RFU, DEPTOR / Fold change vs veh, DEPTOR / RFU, CPM / Fold change vs veh, CPM / RFU, DNAJB6 / Fold change vs veh, DNAJB6 / RFU, CACNA2D3 / Fold change vs veh, CACNA2D3 / RFU, DTX4 / Fold change vs veh, DTX4 / RFU, TFCP2 / Fold change vs veh, TFCP2 / RFU, GMCL1 /// GMCL1P1 / Fold change vs veh, GMCL1 /// GMCL1P1 / RFU, AEBP2 / Fold change vs veh, AEBP2 / RFU, SNHG1 /// SNORD22 /// SNORD25 /// SNORD26 /// SNORD27 /// SNORD28 /// SNORD29 /// SNORD31 / Fold change vs veh, SNHG1 /// SNORD22 /// SNORD25 /// SNORD26 /// SNORD27 /// SNORD28 /// SNORD29 /// SNORD31 / Fold change (Aza/veh), C12orf56 (ProbeSet 11735607_a_at) / Fold change (ACY-1035/veh), C12orf56 (ProbeSet 11735607_a_at) / Fold change (Aza/veh), FGFR1OP (ProbeSet 11751329_s_at) / Fold change (ACY-1035/veh), FGFR1OP (ProbeSet 11751329_s_at) / Fold change (Aza/veh), VPS36 (ProbeSet 11739960_a_at) / Fold change (ACY-1035/veh), VPS36 (ProbeSet 11739960_a_at) / RFU SYPL1 (11715823_x_at) / Fold change /veh SYPL1 (11715823_x_at) / RFU IGFBP7 (11715501_s_at) / Fold change /veh IGFBP7 (11715501_s_at) / RFU REEP3 (11722064_at) / Fold change /veh REEP3 (11722064_at) / RFU IGLL1 (11728026_x_at) / Fold change /veh IGLL1 (11728026_x_at): dose or concentration left out as unconfirmed
Details: MV-4-11 cells, 48 hours

In the case of Nc1ccc(-c2cccs2)cc1NC(=O)c1ccc2c(c1)cc(C1CC1)n2CCN1CCOCC1 [ACY-1035], the “Fold change /veh KRTAP5-7 /// NADSYN1 (11734609_at)” value is reported as 0.96.
